Assay results published in PMC8286840, “Identifying SARS-CoV-2 antiviral compounds by screening for small molecule inhibitors of Nsp3 papain-like protease” (Biochemical Journal, 2021).
Where a name gives a salt, the structure may show the parent alone. Read-outs that look alike come from different tables or passages of the source.

Key:
[1] = target: T1, SARS-CoV-2 PLpro (nsp3 1564–1878) (Severe acute respiratory syndrome coronavirus 2, UniProt P0DTD1); test: biochemical; parameters: FRET-quenched peptide (Pro3) cleavage by PLpro, 10 min pre-incubation, slope over 20 min, normalised to no-compound control; details: low concentration screen, read-out: % of control remaining
[2] = target: T1, SARS-CoV-2 PLpro (nsp3 1564–1878); test: biochemical; parameters: FRET-quenched peptide (Pro3) cleavage by PLpro, 10 min pre-incubation, slope over 20 min, normalised to no-compound control; details: high concentration screen, read-out: % of control remaining

`C[C@H](O)[C@H](O)C1=Nc2c(nc(N)[nH]c2=O)NC1` [7,8-Dihydro-L-biopterin] showed a remaining activity at 1.25 µM ([1]; Well no.=7401) of 110% and a remaining activity at 3.75 µM ([2]; Well no.=7401) of 102%.

Work on `O=c1ccc2ccc(O)c(O)c2o1` [7,8-dihydroxy-2H-chromen-2-one] yielded a remaining activity at 1.25 µM ([1]; Well no.=5782) of 105% and a remaining activity at 3.75 µM ([2]; Well no.=5782) of 108%.

In the case of `COc1cc2c(cc1-c1c(C)noc1C)ncc1[nH]c(=O)n([C@H](C)c3ccccn3)c12` [7-(3,5-dimethyl-4-isoxazolyl)-8-methoxy-1-[(1R)-1-(2-pyridinyl)ethyl]-1,3-dihydro-2H-imidazo[4,5-c]quinolin-2-one], the remaining activity at 1.25 µM ([1]; Well no.=5813) is reported as 101% and the remaining activity at 3.75 µM ([2]; Well no.=5813) is reported as 102%.

`CC(=O)OCC1=C(C(=O)O)N2C(=O)[C@@H](N)[C@H]2SC1` [7-Aminocephalosporanic acid] was tested, and the remaining activity at 1.25 µM ([1]; Well no.=5286) was 98.5% and the remaining activity at 3.75 µM ([2]; Well no.=5286) was 96%.

In the case of `O=c1cc(-c2ccccc2)[nH]c2nc(Cl)ccc12` [7-Chloro-4-hydroxy-2-phenyl-1,8-naphthyridine], the remaining activity at 1.25 µM ([1]; Well no.=324) is reported as 98.8% and the remaining activity at 3.75 µM ([2]; Well no.=324) is reported as 99.1%.

Compound `O=C(O)c1cc(O)c2ccc(Cl)cc2n1` [7-Chlorokynurenic acid] has a remaining activity at 1.25 µM ([1]; Well no.=581) of 104% and a remaining activity at 3.75 µM ([2]; Well no.=581) of 103%.

`O=c1cc(-c2ccccc2)oc2cc(O)ccc12` [7-Hydroxyflavone] showed a remaining activity at 1.25 µM ([1]; Well no.=3293) of 97.8% and a remaining activity at 3.75 µM ([2]; Well no.=3293) of 103%.

In the case of `O=[N+]([O-])c1cccc2cn[nH]c12` [7-Nitroindazole], the remaining activity at 1.25 µM ([1]; Well no.=955) is reported as 107% and the remaining activity at 3.75 µM ([2]; Well no.=955) is reported as 100%.

With `O=C(CCCCCCc1ccccc1)c1ncc(-c2ccccn2)o1` [7-phenyl-1-[5-(2-pyridinyl)-1,3-oxazol-2-yl]-1-heptanone] the remaining activity at 1.25 µM ([1]; Well no.=5997) was 92.2% and the remaining activity at 3.75 µM ([2]; Well no.=5997) was 91.9%.

Work on `O=c1ccc2cc3ccoc3cc2o1` [7H-furo[3,2-g]chromen-7-one] yielded a remaining activity at 1.25 µM ([1]; Well no.=5431) of 101% and a remaining activity at 3.75 µM ([2]; Well no.=5431) of 104%.

`CCCCC[C@H](O)/C=C/C=C/C=C/[C@H](O)C/C=C\CCCC(=O)O` [8(R),15(S)-DIHETE all trans] showed a remaining activity at 1.25 µM ([1]; Well no.=4377) of 102% and a remaining activity at 3.75 µM ([2]; Well no.=4377) of 105%.

In the case of `CCCCC[C@H](O)/C=C/C=C\C=C\[C@@H](O)C/C=C\CCCC(=O)O` [8(S),15(S)-DIHETE], the remaining activity at 1.25 µM ([1]; Well no.=4371) is reported as 102% and the remaining activity at 3.75 µM ([2]; Well no.=4371) is reported as 99.4%.

Compound `CCCCC/C=C\C/C=C\C/C=C\CCCCCCC(=O)O` [8(Z), 11(Z), 14(Z)-Eicosatrienoic Acid] has a remaining activity at 1.25 µM ([1]; Well no.=4548) of 91.1% and a remaining activity at 3.75 µM ([2]; Well no.=4548) of 96.4%.

In the case of `CCCCCCCCCCC/C=C\CCCCCCC(=O)O` [8(Z)-Eicosenoic acid], the remaining activity at 1.25 µM ([1]; Well no.=4404) is reported as 102% and the remaining activity at 3.75 µM ([2]; Well no.=4404) is reported as 102%.

Work on `Cn1c(=O)c2c(nc(/C=C/c3cccc(Cl)c3)n2C)n(C)c1=O` [8-(3-Chlorostyryl)caffeine] yielded a remaining activity at 1.25 µM ([1]; Well no.=727) of 100% and a remaining activity at 3.75 µM ([2]; Well no.=727) of 97.2%.

`Nc1ncnc2c1nc(Sc1ccc(Cl)cc1)n2C1OC2COP(=O)(O)O[C@@H]2[C@@H]1O` (stereo partly shown) [8-(4-Chlorophenylthio)-cAMP sodium] showed a remaining activity at 1.25 µM ([1]; Well no.=126) of 104% and a remaining activity at 3.75 µM ([2]; Well no.=126) of 105%.

Compound `Nc1ncnc2c1nc(Br)n2[C@@H]1O[C@@H]2COP(=O)(O)O[C@H]2[C@H]1O` [8-Bromo-cAMP sodium] has a remaining activity at 1.25 µM ([1]; Well no.=129) of 108% and a remaining activity at 3.75 µM ([2]; Well no.=129) of 111%.

`Nc1nc2c(nc(Br)n2[C@@H]2O[C@@H]3COP(=O)(O)O[C@H]3[C@H]2O)c(=O)[nH]1` [8-Bromo-cGMP sodium] gave a remaining activity at 1.25 µM ([1]; Well no.=214) of 102% and a remaining activity at 3.75 µM ([2]; Well no.=214) of 102%.

For `Cn1c(=O)c2[nH]c(C3CCCC3)nc2n(C)c1=O` [8-Cyclopentyl-1,3-dimethylxanthine], the remaining activity at 1.25 µM ([1]; Well no.=723) was 98.4% and the remaining activity at 3.75 µM ([2]; Well no.=723) was 101%.

For `CCCn1c(=O)c2[nH]c(C3CCCC3)nc2n(CCC)c1=O` [8-Cyclopentyl-1,3-dipropylxanthine], the remaining activity at 1.25 µM ([1]; Well no.=675) was 93.6% and the remaining activity at 3.75 µM ([2]; Well no.=675) was 97.1%.

In the case of `Nc1nc2c([nH]c(=O)n2[C@H]2C[C@H](O)[C@@H](CO)O2)c(=O)[nH]1` [8-Hydroxy-2'-deoxyguanosine], the remaining activity at 1.25 µM ([1]; Well no.=7113) is reported as 105% and the remaining activity at 3.75 µM ([2]; Well no.=7113) is reported as 105%.

`COCc1nc2c([nH]1)c(=O)n(C)c(=O)n2CC(C)C` [8-Methoxymethyl-3-isobutyl-1-methylxanthine] was tested, and the remaining activity at 1.25 µM ([1]; Well no.=970) was 103% and the remaining activity at 3.75 µM ([2]; Well no.=970) was 102%.

Compound `CCCCC/C=C/C/C=C/CCCCCCCC(=O)O` [9(E),12(E)-Octadecadienoic acid] has a remaining activity at 1.25 µM ([1]; Well no.=4356) of 105% and a remaining activity at 3.75 µM ([2]; Well no.=4356) of 104%.

For `CCCCC/C=C\C=C\[C@H](CCCCCCCC(=O)O)OO` [9(S)-HPODE], the remaining activity at 1.25 µM ([1]; Well no.=4386) was 97.7% and the remaining activity at 3.75 µM ([2]; Well no.=4386) was 98%.

In the case of `CCCCCCCC/C=C\CCCCCCCC(=O)O` [9(Z)-Octadecenoic acid], the remaining activity at 1.25 µM ([1]; Well no.=4590) is reported as 101% and the remaining activity at 3.75 µM ([2]; Well no.=4590) is reported as 98.1%.

`CCCC/C=C\CCCCCCCC(=O)O` [9(Z)-Tetradecenoic acid] showed a remaining activity at 1.25 µM ([1]; Well no.=4268) of 102% and a remaining activity at 3.75 µM ([2]; Well no.=4268) of 98%.

`O=C1NC(=O)c2c1c1c3ccccc3n3c1c1c2c2ccccc2n1C1CCC3O1` [9,10,11,12-Tetrahydro-9,12-epoxy-1H-diindolo[1,2,3-fg:3',2',1'-kl]pyrrolo[3,4-i][1,6]benzodiazocine-1,3(2H)-dione] gave a remaining activity at 1.25 µM ([1]; Well no.=2578) of 99% and a remaining activity at 3.75 µM ([2]; Well no.=2578) of 101%.

For `CN1C[C@H](CO)C[C@@H]2c3cccc4[nH]cc(c34)C[C@H]21` [9,10-Dihydrolysergol], the remaining activity at 1.25 µM ([1]; Well no.=3468) was 108% and the remaining activity at 3.75 µM ([2]; Well no.=3468) was 109%.

`Nc1c2c(nc3ccccc13)CCCC2` [9-Amino-1,2,3,4-tetrahydroacridine hydrochloride] gave a remaining activity at 1.25 µM ([1]; Well no.=157) of 102% and a remaining activity at 3.75 µM ([2]; Well no.=157) of 102%.

For `CC1=C(/C=C/C(C)=C\C=C\C(C)=C\C(=O)O)C(C)(C)CCC1` [9-cis Retinoic acid], the remaining activity at 1.25 µM ([1]; Well no.=3136) was 98.3%, the remaining activity at 1.25 µM ([1]; Well no.=4428) was 103% and the remaining activity at 3.75 µM ([2]; Well no.=3136) was 95.8%. For the same compound, the remaining activity at 3.75 µM ([2]; Well no.=4428) was 102%.

With `c1ccc2c(Oc3nc(Nc4ccc(N5CCOCC5)cc4)c4ncn(C5CCCCC5)c4n3)cccc2c1` [9-cyclohexyl-N-[4-(4-morpholinyl)phenyl]-2-(1-naphthyloxy)-9H-purin-6-amine] the remaining activity at 1.25 µM ([1]; Well no.=5695) was 98.5% and the remaining activity at 3.75 µM ([2]; Well no.=5695) was 97.8%.

`Nc1ncnc2c1ncn2C1CCCC1` [9-cyclopentyladenine] gave a remaining activity at 1.25 µM ([1]; Well no.=176) of 93.3% and a remaining activity at 3.75 µM ([2]; Well no.=176) of 91.5%.

Compound `CCCCC[C@@H](O)/C=C/[C@H]1[C@H](C/C=C\CCCC(=O)O)[C@@H](O)C[C@@H]1O` [9b,11a Prostaglandin F2] has a remaining activity at 1.25 µM ([1]; Well no.=4521) of 101% and a remaining activity at 3.75 µM ([2]; Well no.=4521) of 103%.

Compound `CCCCCC/C=C/CCCCCCCCC(=O)O` [10(E)-Heptadecenoic acid] has a remaining activity at 1.25 µM ([1]; Well no.=4312) of 104% and a remaining activity at 3.75 µM ([2]; Well no.=4312) of 96.7%.
